Measured values as given in US6723841B2, “Corticotropin-releasing factor2 receptors” (priority 1994, dated 2004).
pEC50: −log10 of the molar value. Ends that are not written are not given here.

Key:
Format in all cases: cell-based
human CRF2α receptor = assay: cAMP assay (adenylate cyclase stimulation) in cells transfected with CRF2α receptor; settings: cAMP production, read-out: effective concentration of one-half maximal adenylate cyclase stimulation (EC50), human CRF2α receptor
Experimental: (§1) For agonist testing, compounds are added to wells with buffer only in order to identify compounds with intrinsic activity. […] Compounds are then assessed for their ability to inhibit the CRF-stimulated cAMP production in the transfected cells. Briefly, cells are plated and grown in DMEM containing 10% fetal bovine serum for 2-4 days in 24-well plates at 37° C. On the day of assay, the medium is removed by vacuum aspiration and 100 μl of DMEM, 10 mM MgCl2, 1 mM isobutylmethylxanthine (a phosphodiesterase inhibitor to inhibit the breakdown of cAMP produced) and 0.1% BSA (pH 7.2) are added to each well. CRF, related peptides and organic test molecules are added to individual wells. The plates are incubated at 37° C. for a period of 1 hour. Following incubation, the wells are aspirated, rinsed once with PBS and aspirated again. 300 μl of 95% Ethanol and 20 mM HCl (EtOH/HCl) are then added to each well and the plates incubated at −20° C. overnight to extract the produced cAMP. The EtOH/HCl is removed, placed in 1.5 ml polypropylene eppendorf tubes and the wells washed with an additional 200 μl of EtOH/HCl and pooled with the initial sample. All samples are dried in a Speed-Vac (Savant Instruments, Farmingdale N.Y.) and either stored at −20° C. until use or reconstituted with 500 μl of sodium acetate buffer pH 7.5 and assayed immediately for cAMP concentration using a radioimmunoassay kit from Biomedical Technologies Inc. (Stoughton Mass.) according to manufacturers instructions.
The above results have been formulated below in Table I, wherein the effective concentration of one-half maximal adenylate cyclase stimulation (EC50) are presented.

rat CRF2β receptor = target: T1, rat CRF2β receptor (Rattus norvegicus, UniProt P47866); assay: cAMP assay (adenylate cyclase stimulation) in cells transfected with CRF2β receptor; settings: cAMP production, read-out: effective concentration of one-half maximal adenylate cyclase stimulation (EC50), rat CRF2β receptor
T1 construct: A full-length CRF2 receptor clone in pBluescriptSK- is isolated from the phage clone described above; expressed in transfected cells; host or cells: COS-7
T1 sequence (P47866 1-431 isoform P47866-2): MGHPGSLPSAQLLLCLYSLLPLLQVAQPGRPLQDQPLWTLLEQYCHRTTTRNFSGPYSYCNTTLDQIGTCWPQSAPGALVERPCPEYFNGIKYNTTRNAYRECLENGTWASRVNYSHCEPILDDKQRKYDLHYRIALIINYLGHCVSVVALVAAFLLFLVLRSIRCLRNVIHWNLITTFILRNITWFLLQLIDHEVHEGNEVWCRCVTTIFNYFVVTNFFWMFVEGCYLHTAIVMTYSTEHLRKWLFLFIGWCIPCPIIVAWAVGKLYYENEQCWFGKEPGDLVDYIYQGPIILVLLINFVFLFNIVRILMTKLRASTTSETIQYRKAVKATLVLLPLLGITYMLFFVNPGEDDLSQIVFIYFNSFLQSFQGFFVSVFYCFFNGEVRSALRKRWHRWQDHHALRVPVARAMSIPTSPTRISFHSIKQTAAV
Experimental: (§2) For agonist testing, compounds are added to wells with buffer only in order to identify compounds with intrinsic activity. […] Briefly, cells are plated and grown in DMEM containing 10% fetal bovine serum for 2-4 days in 24-well plates at 37° C. On the day of assay, the medium is removed by vacuum aspiration and 100 μl of DMEM, 10 mM MgCl2, 1 mM isobutylmethylxanthine (a phosphodiesterase inhibitor to inhibit the breakdown of cAMP produced) and 0.1% BSA (pH 7.2) are added to each well. […] The plates are incubated at 37° C. for a period of 1 hour. Following incubation, the wells are aspirated, rinsed once with PBS and aspirated again. 300 μl of 95% Ethanol and 20 mM HCl (EtOH/HCl) are then added to each well and the plates incubated at −20° C. overnight to extract the produced cAMP. The EtOH/HCl is removed, placed in 1.5 ml polypropylene eppendorf tubes and the wells washed with an additional 200 μl of EtOH/HCl and pooled with the initial sample. All samples are dried in a Speed-Vac (Savant Instruments, Farmingdale N.Y.) and either stored at −20° C. until use or reconstituted with 500 μl of sodium acetate buffer pH 7.5 and assayed immediately for cAMP concentration using a radioimmunoassay kit from Biomedical Technologies Inc. (Stoughton Mass.) according to manufacturers instructions.

rat CRF2α receptor = target: T2, rat CRF2α receptor (Rattus norvegicus, UniProt P47866); assay: cAMP accumulation in cells transfected with rat CRF2α receptor (FIG. 4)
T2 construct: A full-length CRF2 receptor clone in pBluescriptSK- is isolated from the phage clone described above; expressed in transfected cells; host or cells: COS-7
T2 sequence (P47866 whole entry): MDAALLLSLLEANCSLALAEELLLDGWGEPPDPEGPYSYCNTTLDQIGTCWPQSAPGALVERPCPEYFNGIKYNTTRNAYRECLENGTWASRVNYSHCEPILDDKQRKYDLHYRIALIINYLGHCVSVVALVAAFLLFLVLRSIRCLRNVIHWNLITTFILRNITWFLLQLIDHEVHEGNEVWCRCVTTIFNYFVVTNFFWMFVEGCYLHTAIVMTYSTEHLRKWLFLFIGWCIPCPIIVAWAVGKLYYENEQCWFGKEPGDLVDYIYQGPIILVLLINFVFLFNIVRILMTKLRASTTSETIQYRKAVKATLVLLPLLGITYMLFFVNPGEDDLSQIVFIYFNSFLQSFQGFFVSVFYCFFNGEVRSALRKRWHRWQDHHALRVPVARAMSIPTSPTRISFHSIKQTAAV
Experimental: as §1, with “All samples are dried in a Speed-Vac (Savant Instruments, Farmingdale N.Y.) and either stored at −20° C. until use or reconstituted with 500 μl of sodium acetate buffer pH 7.5 and assayed immediately for cAMP concentration using a radioimmunoassay kit from Biomedical Technologies Inc. (Stoughton Mass.) according to manufacturers instructions.” left out
In FIG. 4, the rat CRF2α receptor has been transfected into cells and cAMP accumulation is measured in response to the same drugs as shown in FIG. 3. […]

human CRF1 receptor = target: T3, human CRF1 receptor (Homo sapiens, UniProt P34998); assay: cAMP assay (adenylate cyclase stimulation) in cells transfected with CRF1 receptor; settings: for pEC50: transfected cells, cAMP production, read-out: effective concentration of one-half maximal adenylate cyclase stimulation (EC50), human CRF1 receptor; for cAMP accumulation in cells transfected with the CRF1 receptor: FIG. 3
T3 construct: expressed in transfected cells
T3 sequence (P34998 24-415): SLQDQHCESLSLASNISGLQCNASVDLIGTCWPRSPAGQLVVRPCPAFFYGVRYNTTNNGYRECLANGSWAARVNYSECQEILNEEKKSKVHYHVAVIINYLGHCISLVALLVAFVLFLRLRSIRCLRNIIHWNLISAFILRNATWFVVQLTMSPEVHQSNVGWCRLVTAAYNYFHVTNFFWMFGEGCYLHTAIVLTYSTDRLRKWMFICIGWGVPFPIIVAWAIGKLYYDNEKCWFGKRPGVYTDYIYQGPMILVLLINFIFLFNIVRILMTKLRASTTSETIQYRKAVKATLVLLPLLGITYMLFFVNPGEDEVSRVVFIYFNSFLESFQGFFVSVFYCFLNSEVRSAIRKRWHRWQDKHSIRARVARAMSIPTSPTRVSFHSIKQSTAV
Experimental: as §2

Compound	pEC50 (human CRF2α receptor)	pEC50 (human CRF1 receptor)	pEC50 (rat CRF2β receptor)	relative potency at stimulating cAMP, rat CRF2α receptor (rat CRF2α receptor)	cAMP accumulation in cells transfected with the CRF1 receptor (human CRF1 receptor)
N=C(N)NCCC[C@H](NC(=O)[C@@H]1CCCN1C(=O)[C@@H]1CSSC[C@H](N)C(=O)N[C@@H](Cc2ccc(O)cc2)C(=O)N[C@@H](Cc2ccccc2)C(=O)N[C@@H](CCC(N)=O)C(=O)N[C@@H](CC(N)=O)C(=O)N1)C(=O)NCC(N)=O [AVP]	< 6.00	–	–	–	–
CC[C@H](C)[C@H](NC(=O)[C@@H](NC(=O)[C@H](CC(=O)O)NC(=O)[C@H](CC(C)C)NC(=O)[C@H](CC(C)C)NC(=O)[C@H](CC(C)C)NC(=O)[C@H](CCCNC(=N)N)NC(=O)[C@H](CC(N)=O)NC(=O)[C@H](CC(N)=O)NC(=O)[C@H](C)NC(=O)[C@H](C)NC(=O)[C@H](CCC(N)=O)NC(=O)[C@H](CCC(N)=O)NC(=O)[C@H](CCCCN)NC(=O)[C@H](CCC(=O)O)NC(=O)[C@H](CCCCN)NC(=O)[C@H](CCC(=O)O)NC(=O)[C@H](CCC(N)=O)NC(=O)[C@H](CCCCN)NC(=O)[C@H](CCC(=O)O)NC(=O)[C@@H](NC(=O)[C@H](CCC(=O)O)NC(=O)[C@@H](NC(=O)[C@H](CCSC)NC(=O)[C@H](CCCCN)NC(=O)[C@H](CCCNC(=N)N)NC(=O)[C@H](CC(C)C)NC(=O)[C@H](CC(C)C)NC(=O)[C@H](CCC(=O)O)NC(=O)[C@H](CC(C)C)NC(=O)[C@H](CO)NC(=O)[C@H](CC(C)C)NC(=O)[C@H](CC(=O)O)NC(=O)[C@@H](NC(=O)[C@H](CO)NC(=O)[C@@H](NC(=O)[C@@H]1CCCN1C(=O)[C@@H]1CCCN1C(=O)CNC(=O)[C@@H]1CCC(=O)N1)[C@@H](C)CC)[C@@H](C)CC)[C@@H](C)CC)[C@@H](C)CC)[C@@H](C)O)C(N)=O [Sauvagine]	9.30	–	9.40	more potent than either oCRF or r/hCRF	–
CC[C@H](C)[C@H](NC(=O)[C@H](CO)NC(=O)[C@H](CC(N)=O)NC(=O)[C@H](CC(C)C)NC(=O)[C@H](Cc1ccc(O)cc1)NC(=O)[C@H](CCCCN)NC(=O)[C@H](CCCCN)NC(=O)[C@@H](NC(=O)[C@H](C)NC(=O)[C@H](CCSC)NC(=O)[C@H](CCC(N)=O)NC(=O)[C@H](CCCCN)NC(=O)[C@H](CCCNC(=N)N)NC(=O)[C@H](CC(C)C)NC(=O)[C@H](CCCNC(=N)N)NC(=O)[C@@H](NC(=O)[C@H](Cc1ccc(O)cc1)NC(=O)[C@H](CC(N)=O)NC(=O)[C@H](CC(=O)O)NC(=O)[C@@H](NC(=O)[C@H](Cc1ccccc1)NC(=O)[C@@H](NC(=O)[C@H](C)NC(=O)[C@H](CC(=O)O)NC(=O)[C@H](CO)NC(=O)[C@@H](N)Cc1c[nH]cn1)C(C)C)[C@@H](C)O)[C@@H](C)O)C(C)C)C(=O)N[C@@H](CC(C)C)C(=O)N[C@@H](CC(N)=O)C(N)=O [VIP]	< 6.00	–	–	–	–
oCRF	7.10	–	–	–	dose-dependent increase in cAMP

Further lines, with some results ahead:

pEC50 (human CRF2α receptor)	pEC50 (human CRF1 receptor)	Compound	pEC50 (rat CRF2β receptor)	relative potency at stimulating cAMP, rat CRF2α receptor (rat CRF2α receptor)	cAMP accumulation in cells transfected with the CRF1 receptor (human CRF1 receptor)
< 6.00	< 6.00	CC[C@H](C)[C@H](NC(=O)[C@H](C)NC(=O)[C@H](CC(=O)O)NC(=O)[C@H](C)NC(=O)[C@@H](N)Cc1ccc(O)cc1)C(=O)N[C@@H](Cc1ccccc1)C(=O)N[C@H](C(=O)N[C@@H](CC(N)=O)C(=O)N[C@@H](CO)C(=O)N[C@@H](Cc1ccc(O)cc1)C(=O)N[C@@H](CCCNC(=N)N)C(=O)N[C@@H](CCCCN)C(=O)N[C@H](C(=O)N[C@@H](CC(C)C)C(=O)NCC(=O)N[C@@H](CCC(N)=O)C(=O)N[C@@H](CC(C)C)C(=O)N[C@@H](CO)C(=O)N[C@@H](C)C(=O)N[C@@H](CCCNC(=N)N)C(=O)N[C@@H](CCCCN)C(=O)N[C@@H](CC(C)C)C(=O)N[C@@H](CC(C)C)C(=O)N[C@@H](CCC(N)=O)C(=O)N[C@@H](CC(=O)O)C(=O)N[C@H](C(=O)N[C@@H](CCSC)C(=O)N[C@@H](CO)C(=O)N[C@@H](CCCNC(=N)N)C(=O)N[C@@H](CCC(N)=O)C(=O)N[C@@H](CCC(N)=O)C(=O)NCC(=O)N[C@@H](CCC(=O)O)C(=O)N[C@@H](CO)C(=O)N[C@@H](CC(N)=O)C(=O)N[C@@H](CCC(N)=O)C(=O)N[C@@H](CCC(=O)O)C(=O)N[C@@H](CCCNC(=N)N)C(=O)NCC(=O)N[C@@H](C)C(=O)N[C@@H](CCCNC(=N)N)C(=O)N[C@@H](C)C(=O)N[C@@H](CCCNC(=N)N)C(=O)N[C@@H](CC(C)C)C(N)=O)[C@@H](C)CC)C(C)C)[C@@H](C)O [hGRF]	–	–	–
< 6.00	–	DLTFHLLREMLEMAKAEQEAEQAALNRLLLEEA-NH2 (C-terminus assumed) [α-helical oCRF(9-41)]	–	–	–
< 6.00	< 6.00	ISLDLTFHLLREVLEMARAEQLAQQAHS [r/hCRF(6-33)]	–	–	–
8.70	–	NDDPPISIDLTFHLLRNMIEMARIENEREQAGLNRKYLDEV-NH2 (C-terminus assumed) [Urotensin I]	–	more potent than either oCRF or r/hCRF	dose-dependent increase in cAMP
< 6.00	< 6.00	d-Phe r/hCRF(12-41): CRF receptor antagonist peptide	–	–	–
